# From PubChem BioAssay (NCI)
#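 The compound was tested at five concentrations on cells cultured in 96-well plates, with a 48-hour exposure period. GI50 = concentration required for 50% inhibition of growth. The concentration for full growth arrest is given as TGI.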
# Legend:
# Experiment in all cases: DTP human tumour cell line panel, 48 h
# [1] = test system: 786-0 renal
# [2] = test system: A498 renal
# [3] = test system: A549 NSCLC
# [4] = test system: ACHN renal
# [5] = test system: BT-549 breast
# [6] = test system: CAKI-1 renal
# [7] = test system: CCRF-CEM leukemia
# [8] = test system: COLO 205 colon
# [9] = test system: DU-145 prostate
# [10] = test system: EKVX NSCLC
# [11] = test system: HCC-2998 colon
# [12] = test system: HCT-116 colon
# [13] = test system: HCT-15 colon
# [14] = test system: HL-60(TB) leukemia
# [15] = test system: HOP-62 NSCLC
# [16] = test system: HOP-92 NSCLC
# [17] = test system: HS 578T breast
# [18] = test system: HT29 colon
# [19] = test system: IGROV1 ovarian
# [20] = test system: K-562 leukemia
# [21] = test system: KM12 colon
# [22] = test system: LOX IMVI melanoma
# [23] = test system: M14 melanoma
# [24] = test system: MALME-3M melanoma
# [25] = test system: MCF7 breast
# [26] = test system: MDA-MB-231 breast
# [27] = test system: MOLT-4 leukemia
# [28] = test system: NCI-H226 lung
# [29] = test system: NCI-H23 lung
# [30] = test system: NCI-H460 lung
# [31] = test system: NCI-H522 lung
# [32] = test system: NCI/ADR-RES ovarian
# [33] = test system: OVCAR-3 ovarian
# [34] = test system: OVCAR-4 ovarian
# [35] = test system: OVCAR-5 ovarian
# [36] = test system: OVCAR-8 ovarian
# [37] = test system: PC-3 prostate
# [38] = test system: RPMI-8226 leukemia
# [39] = test system: RXF 393 renal
# [40] = test system: SF-268 CNS
# [41] = test system: SF-295 CNS
# [42] = test system: SF-539 CNS
# [43] = test system: SK-MEL-2 melanoma
# [44] = test system: SK-MEL-28 melanoma
# [45] = test system: SK-MEL-5 melanoma
# [46] = test system: SK-OV-3 ovarian
# [47] = test system: SN12C renal
# [48] = test system: SNB-19 CNS
# [49] = test system: SNB-75 CNS
# [50] = test system: SR leukemia
# [51] = test system: SW-620 colon
# [52] = test system: T-47D breast
# [53] = test system: TK-10 renal
# [54] = test system: U251 CNS
# [55] = test system: UACC-257 melanoma
# [56] = test system: UACC-62 melanoma
# [57] = test system: UO-31 renal
structure (smiles),measurement,setting,value
c1cncc(CNc2ccccc2-c2nnc(Nc3ccc4c(c3)OCCO4)o2)c1,GI50,[1],366 nM
same,TGI,[1],> 100000 nM
same,GI50,[2],138 nM
same,TGI,[2],1800 nM
same,GI50,[3],294 nM
same,TGI,[3],> 100000 nM
same,GI50,[4],1080 nM
same,TGI,[4],> 100000 nM
same,GI50,[5],861 nM
same,TGI,[5],53000 nM
same,GI50,[6],215 nM
same,TGI,[6],> 100000 nM
same,GI50,[7],126 nM
same,TGI,[7],51400 nM
same,GI50,[8],146 nM
same,TGI,[8],817 nM
same,GI50,[9],244 nM
same,TGI,[9],1540 nM
same,GI50,[10],609 nM
same,TGI,[10],> 100000 nM
same,GI50,[11],255 nM
same,GI50,[12],71 nM
same,TGI,[12],> 100000 nM
same,GI50,[13],107 nM
same,TGI,[13],> 100000 nM
same,GI50,[14],103 nM
same,TGI,[14],3340 nM
same,GI50,[15],181 nM
same,TGI,[15],> 100000 nM
same,GI50,[16],222 nM
same,TGI,[16],20000 nM
same,GI50,[17],232 nM
same,TGI,[17],> 100000 nM
same,GI50,[18],50.4 nM
same,TGI,[18],15200 nM
same,GI50,[19],500 nM
same,TGI,[19],> 100000 nM
same,GI50,[20],43.2 nM
same,TGI,[20],> 100000 nM
same,GI50,[21],67 nM
same,TGI,[21],1860 nM
same,GI50,[22],183 nM
same,TGI,[22],> 100000 nM
same,GI50,[23],70.4 nM
same,TGI,[23],> 100000 nM
same,GI50,[24],19200 nM
same,TGI,[24],> 100000 nM
same,GI50,[25],291 nM
same,TGI,[25],> 100000 nM
same,GI50,[26],644 nM
same,TGI,[26],> 100000 nM
same,GI50,[27],435 nM
same,TGI,[27],15500 nM
same,GI50,[28],153 nM
same,TGI,[28],810 nM
same,GI50,[29],226 nM
same,TGI,[29],> 100000 nM
same,GI50,[30],148 nM
same,TGI,[30],> 32500 nM
same,GI50,[31],36.9 nM
same,TGI,[31],7900 nM
same,GI50,[32],55.7 nM
same,TGI,[32],> 100000 nM
same,GI50,[33],45.2 nM
same,TGI,[33],228 nM
same,GI50,[34],549 nM
same,TGI,[34],42500 nM
same,GI50,[35],658 nM
same,TGI,[35],> 100000 nM
same,GI50,[36],435 nM
same,TGI,[36],> 100000 nM
same,GI50,[37],128 nM
same,TGI,[37],> 100000 nM
same,GI50,[38],280 nM
same,TGI,[38],17700 nM
same,GI50,[39],34.3 nM
same,TGI,[39],251 nM
same,GI50,[40],646 nM
same,TGI,[40],> 100000 nM
same,GI50,[41],93.6 nM
same,TGI,[41],> 100000 nM
same,GI50,[42],115 nM
same,TGI,[42],> 100000 nM
same,GI50,[43],217 nM
same,TGI,[43],> 100000 nM
same,GI50,[44],145 nM
same,TGI,[44],> 100000 nM
same,GI50,[45],72.1 nM
same,TGI,[45],2030 nM
same,GI50,[46],74.5 nM
same,TGI,[46],1790 nM
same,GI50,[47],482 nM
same,TGI,[47],> 100000 nM
same,GI50,[48],345 nM
same,TGI,[48],> 100000 nM
same,GI50,[49],52.7 nM
same,TGI,[49],> 100000 nM
same,GI50,[50],42.4 nM
same,TGI,[50],> 36000 nM
same,GI50,[51],57.6 nM
same,TGI,[51],> 100000 nM
same,GI50,[52],3570 nM
same,TGI,[52],60200 nM
same,GI50,[53],17000 nM
same,TGI,[53],> 100000 nM
same,GI50,[54],157 nM
same,TGI,[54],> 100000 nM
same,GI50,[55],11600 nM
same,TGI,[55],> 100000 nM
same,GI50,[56],52.2 nM
same,TGI,[56],> 100000 nM
same,GI50,[57],4690 nM
same,TGI,[57],> 100000 nM
